Test: Solubility of AP-325 in different solvents at ambient temperature
Assay type: physicochemical
Excerpt: AP-325 is a pharmaceutical agent, which is currently in clinical development. […] For a better characterization of active ingredients with low solubility, a classification according to the BCS system (=Biopharmaceutics Classification System) was introduced (Guidance for Industry: Immediate release solid oral dosage forms and FDA, 1995). This BCS system distinguishes four categories based on the solubility and permeability of the active substance. At a pH value of below 7 AP-325 can be classified as a BCS class II drug substance. The low solubility of AP-325 negatively affects the absorption into the body after oral administration due to a limited absorption of the active agent in the small intestine (such as the jejunum or ileum), which is an essential absorption window for the uptake of a drug. Consequently, the therapeutic effect cannot be achieved.
FIG. 3: Solubility of AP-325 in different solvents at ambient temperature.

Cc1cc(NC(=O)/C(C#N)=C(\O)C2CC2)ccc1C(F)(F)F [AP-325]
BCS classification (pH value of below 7): BCS class II | Solubility (physiological pH of 6.8 (phosphate buffer), ambient temperature): practically insoluble

From patent US20230226007A1, “NANOPARTICULATE COMPOSITION” (Algiax Pharmaceuticals GmbH, priority 2020, published 2023)
